Source: EP3046573B1, “AMYLIN ANALOGUES” (Zealand Pharma A/S, priority 2013, dated 2015)
Numbered stars: 1 amine (or outer) side, 2 acyl side, 3 side chain; on linkers, the order of the positions; unused ones are H or OH. Bridge positions count the residues as written; N and C are the ends. Square brackets hold non-standard residues; d marks the D form. Peptide text beside a SMILES is read from it. * marks the point of attachment. C20 diacid = O=C(O)CCCCCCCCCCCCCCCCCCC(=O)*; γGlu = O=C(O)[C@H](CCC(=O)[*:2])N[*:1]; NMeI = CC[C@H](C)[C@H](NC)C(=O)O; Sar = CNCC(=O)O

Assays:
Sprague Dawley (SD) rats = assay: Acute food intake and body weight in normal Sprague Dawley rats; assay type: in vivo; conditions: vehicle-corrected, dose 30 nmol/kg sc, once; for Body weight loss (%) after 96 hours: mean ± SEM, n = 8
Protocol: Sprague Dawley (SD) rats were obtained from Taconic A/S, Denmark. The animals arrived at least 7 days before the study start to allow acclimatization to experimental conditions. From arrival and throughout the study, the rats were housed in groups of 2 (n = 2) in a light-, temperature- and humidity-controlled room (reversed 12/12 h light/dark cycle: lights turned off during day-time and on during night-time; temperature 20-22°C; relative humidity 50-80%). Animals had access ad libitum to food (Altromin™ 1324, Brogaarden A/S, Gentofte, Denmark) and water (domestic quality tap water with citric acid added to pH ∼ 3.6) during the entire study. Stratification of rats was based on body weight (BW) on a cage-by-cage basis; mean BWs per cage were used as the basis for pairing four cages together in a group (n = 8 per group). A vehicle group and positive control group were included in each set of tests. Rats were dosed subcutaneously (sc) once in the morning immediately before turning off the lights, using a body weight-corrected dose of peptide (30 nmol/kg). Dosing volume was 5 ml/kg. Food intake was recorded manually at t = 0 (pre-dose) and at t = 4, 7, 10, 24, 48, 72 and 96 hours after dosing. Body weight was measured daily.
Statistical analyses on body weight were performed using GraphPad™ Prism version 5. The measured parameters were compared using unpaired t tests. Differences were considered statistically significant at p < 0.05. Data are means ± SEM; n =8.

[1] = Solubility assessment (turbidity absorbance at 325 nm); assay type: physicochemical; conditions: stock 2 mg/ml diluted 1:1, ambient temperature (typically 25°C), n=1; for Solubility, Acetate buffer pH 4: 100 mM acetate buffer pH 4.0; for Solubility, Acetate buffer pH 5: 100 mM acetate buffer pH 5.0; for Solubility, Histidine buffer pH 6: 100 mM histidine buffer pH 6.0; for Solubility, Histidine buffer pH 7: 100 mM histidine buffer pH 7.0; for Solubility, Phosphate buffer pH 6: 100 mM phosphate buffer pH 6.0; for Solubility, Phosphate buffer pH 7: 100 mM phosphate buffer pH 7.0; for Solubility, Phosphate buffer pH 7.5: 100 mM phosphate buffer pH7.5
How it was run: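 Turbidity read as absorbance at 325 nm (also 280 nm), single samples at ambient temperature (typically 25°C); ≤ 0.02 units counts as ≥ 1 mg/ml soluble. Samples made by 1:1 dilution of a 2 mg/ml acidic stock into 100 mM acetate, histidine or phosphate buffers, pH 4.0–7.5.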

[2] = biological target: T1, human calcitonin receptor (hCTR2) (Homo sapiens, UniProt P30988); assay: hCTR2 assay: induction of cAMP (AlphaScreen cAMP Assay kit) in COS7 cells expressing hCTR2; assay type: cell-based; conditions: cAMP induction in COS7 cells expressing hCTR2; average of a minimum of 3 determinations; read-out: hCTR2 EC50
T1 construct: expressed in transfected cells
T1 sequence (P30988 25-474): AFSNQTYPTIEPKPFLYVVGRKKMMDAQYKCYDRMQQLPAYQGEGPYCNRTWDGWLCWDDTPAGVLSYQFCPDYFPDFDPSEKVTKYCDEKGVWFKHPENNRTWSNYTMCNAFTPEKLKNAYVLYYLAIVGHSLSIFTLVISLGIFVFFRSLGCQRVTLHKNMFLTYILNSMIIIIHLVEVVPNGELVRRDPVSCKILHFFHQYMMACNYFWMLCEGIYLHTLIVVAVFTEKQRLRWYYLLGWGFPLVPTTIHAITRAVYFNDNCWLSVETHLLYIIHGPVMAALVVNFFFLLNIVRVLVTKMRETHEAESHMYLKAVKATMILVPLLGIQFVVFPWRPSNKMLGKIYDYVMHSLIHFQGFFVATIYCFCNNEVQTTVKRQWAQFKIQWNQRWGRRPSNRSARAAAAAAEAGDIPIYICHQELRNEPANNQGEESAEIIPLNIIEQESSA
How it was run: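 cAMP induction was measured by AlphaScreen in COS7 cells stably expressing hCTR2 without RAMPs, after 15 min at 37° C with increasing peptide concentrations, 100 µM IBMX and 0.1% casein (Tyrode, pH 7.4). A 4-parameter logistic fit gave EC50 and % efficacy versus pramlintide.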

SMILES	Food intake inhibition (%) after 48 hours (Sprague Dawley (SD) rats) [%]	Body weight loss (%) after 96 hours (Sprague Dawley (SD) rats) [%]	Solubility, Acetate buffer pH 4 [1]	Solubility, Acetate buffer pH 5 [1]	Solubility, Histidine buffer pH 6 [1]	Solubility, Histidine buffer pH 7 [1]	Solubility, Phosphate buffer pH 6 [1]	Solubility, Phosphate buffer pH 7 [1]	Solubility, Phosphate buffer pH 7.5 [1]	EC50 [2] [nM]
CC[C@H](C)[C@@H](C(=O)N[C@@H](CC(C)C)C(=O)N[C@@H](CO)C(=O)N[C@@H](CO)C(=O)N[C@H](C(=O)N[C@@H](CC(N)=O)C(=O)N[C@H](C(=O)NCC(=O)N[C@@H](CO)C(=O)N[C@@H](CC(N)=O)C(=O)N[C@H](C(=O)N1CCC[C@H]1C(N)=O)[C@@H](C)O)C(C)C)[C@@H](C)O)N(C)C(=O)[C@H](C)NC(=O)CN(C)C(=O)[C@H](Cc1ccccc1)NC(=O)[C@H](CC(N)=O)NC(=O)[C@H](CC(N)=O)NC(=O)[C@H](CO)NC(=O)[C@H](CO)NC(=O)[C@H](Cc1c[nH]cn1)NC(=O)[C@H](Cc1c[nH]cn1)NC(=O)[C@H](CC(C)C)NC(=O)[C@H](Cc1ccccc1)NC(=O)[C@H](CCC(=O)O)NC(=O)[C@H](C)NC(=O)[C@H](CC(C)C)NC(=O)[C@H](CCCNC(=N)N)NC(=O)[C@H](CCC(N)=O)NC(=O)[C@@H](NC(=O)[C@H](C)NC(=O)[C@@H]1CSSC[C@H](NC(=O)[C@H](CCCNC(=N)N)NC(=O)CC[C@H](NC(=O)CCCCCCCCCCCCCCCCCCC(=O)O)C(=O)O)C(=O)N[C@@H](CC(N)=O)C(=O)N[C@@H]([C@@H](C)O)C(=O)N[C@@H](C)C(=O)N[C@@H]([C@@H](C)O)C(=O)N1)[C@@H](C)O [Compound 1, [19CD]-isoGlu-RC()NTATC()ATQRLAEFLHHSSNNF-Gly(Me)-A-Ile(Me)-LSSTNVGSNTP-NH2] ({C20 diacid-γGlu}-RCNTATCATQRLAEFLHHSSNNF[Sar]A[NMeI]LSSTNVGSNTP-NH2; disulfide 2-7)	98	9 ± 1.8	SS (SS indicates solubility ≥ 1mg/ml)	SS (SS indicates solubility ≥ 1mg/ml)	SS (SS indicates solubility ≥ 1mg/ml)	SS (SS indicates solubility ≥ 1mg/ml)	SS (SS indicates solubility ≥ 1mg/ml)	SS (SS indicates solubility ≥ 1mg/ml)	SS (SS indicates solubility ≥ 1mg/ml)	
CC[C@H](C)[C@@H](C(=O)N[C@@H](CC(C)C)C(=O)N[C@@H](CO)C(=O)N[C@@H](CO)C(=O)N[C@H](C(=O)N[C@@H](CCC(=O)O)C(=O)N[C@H](C(=O)NCC(=O)N[C@@H](CO)C(=O)N[C@@H](CCC(=O)O)C(=O)N[C@H](C(=O)N1CCC[C@H]1C(N)=O)[C@@H](C)O)C(C)C)[C@@H](C)O)N(C)C(=O)[C@H](C)NC(=O)CN(C)C(=O)[C@H](Cc1ccccc1)NC(=O)[C@H](CO)NC(=O)[C@H](CO)NC(=O)[C@H](CO)NC(=O)[C@H](CO)NC(=O)[C@H](CCCNC(=N)N)NC(=O)[C@H](Cc1c[nH]cn1)NC(=O)[C@H](CC(C)C)NC(=O)[C@H](Cc1ccccc1)NC(=O)[C@H](CCC(=O)O)NC(=O)[C@H](C)NC(=O)[C@H](CC(C)C)NC(=O)[C@H](CCCNC(=N)N)NC(=O)[C@H](C)NC(=O)[C@@H](NC(=O)[C@H](C)NC(=O)[C@@H]1CSSC[C@H](NC(=O)[C@H](CCCNC(=N)N)NC(=O)CC[C@H](NC(=O)CCCCCCCCCCCCCCCCCCC(=O)O)C(=O)O)C(=O)N[C@@H](CC(N)=O)C(=O)N[C@@H]([C@@H](C)O)C(=O)N[C@@H](C)C(=O)N[C@@H]([C@@H](C)O)C(=O)N1)[C@@H](C)O [Compound 118, [19CD]-isoGlu-RC()NTATC()ATARLAEFLHRSSSSF-Gly(Me)-A-Ile(Me)-LSSTEVGSETP-NH2] ({C20 diacid-γGlu}-RCNTATCATARLAEFLHRSSSSF[Sar]A[NMeI]LSSTEVGSETP-NH2; disulfide 2-7)	93	13 ± 1.8								0.062
CC[C@H](C)[C@@H](C(=O)N[C@@H](CC(C)C)C(=O)N1CCC[C@H]1C(=O)N1CCC[C@H]1C(=O)N[C@H](C(=O)N[C@@H](CC(N)=O)C(=O)N[C@H](C(=O)NCC(=O)N[C@@H](CO)C(=O)N[C@@H](CC(N)=O)C(=O)N[C@H](C(=O)N1CCC[C@H]1C(N)=O)[C@@H](C)O)C(C)C)[C@@H](C)O)N(C)C(=O)CN(C)C(=O)[C@H](Cc1ccccc1)NC(=O)[C@H](CC(N)=O)NC(=O)[C@H](CC(N)=O)NC(=O)[C@H](CO)NC(=O)[C@H](CO)NC(=O)[C@H](Cc1c[nH]cn1)NC(=O)[C@H](Cc1c[nH]cn1)NC(=O)[C@H](CC(C)C)NC(=O)[C@H](Cc1ccccc1)NC(=O)[C@H](CCC(=O)O)NC(=O)[C@H](C)NC(=O)[C@H](CC(C)C)NC(=O)[C@H](CCCNC(=N)N)NC(=O)[C@H](CCC(N)=O)NC(=O)[C@@H](NC(=O)[C@H](C)NC(=O)[C@@H]1CSSC[C@H](NC(=O)[C@H](CCCNC(=N)N)NC(=O)CC[C@H](NC(=O)CCCCCCCCCCCCCCCCCCC(=O)O)C(=O)O)C(=O)N[C@@H](CC(N)=O)C(=O)N[C@@H]([C@@H](C)O)C(=O)N[C@@H](C)C(=O)N[C@@H]([C@@H](C)O)C(=O)N1)[C@@H](C)O [Compound 176, [19CD]-isoGlu-RC()NTATC()ATQRLAEFLHHSSNNF-Gly(Me)-Ile(Me)-LPPTNVGSNTP-NH2] ({C20 diacid-γGlu}-RCNTATCATQRLAEFLHHSSNNF[Sar][NMeI]LPPTNVGSNTP-NH2; disulfide 2-7)			SS (SS indicates solubility ≥ 1mg/ml)	SS (SS indicates solubility ≥ 1mg/ml)	SS (SS indicates solubility ≥ 1mg/ml)	SS (SS indicates solubility ≥ 1mg/ml)	SS (SS indicates solubility ≥ 1mg/ml)	SS (SS indicates solubility ≥ 1mg/ml)	SS (SS indicates solubility ≥ 1mg/ml)	0.12
CC[C@H](C)[C@H](NC(=O)[C@@H]1CCCN1C(=O)CNC(=O)[C@H](Cc1ccccc1)NC(=O)[C@H](CC(N)=O)NC(=O)[C@H](CC(N)=O)NC(=O)[C@H](CO)NC(=O)[C@H](CO)NC(=O)[C@H](Cc1c[nH]cn1)NC(=O)[C@H](Cc1c[nH]cn1)NC(=O)[C@H](CC(C)C)NC(=O)[C@H](Cc1ccccc1)NC(=O)[C@H](CCC(=O)O)NC(=O)[C@H](C)NC(=O)[C@H](CC(C)C)NC(=O)[C@H](CCCNC(=N)N)NC(=O)[C@H](CCC(N)=O)NC(=O)[C@@H](NC(=O)[C@H](C)NC(=O)[C@@H]1CSSC[C@H](NC(=O)[C@H](CCCNC(=N)N)NC(=O)CC[C@H](NC(=O)CCCCCCCCCCCCCCCCCCC(=O)O)C(=O)O)C(=O)N[C@@H](CC(N)=O)C(=O)N[C@@H]([C@@H](C)O)C(=O)N[C@@H](C)C(=O)N[C@@H]([C@@H](C)O)C(=O)N1)[C@@H](C)O)C(=O)N[C@@H](CC(C)C)C(=O)N1CCC[C@H]1C(=O)N1CCC[C@H]1C(=O)N[C@H](C(=O)N[C@@H](CC(N)=O)C(=O)N[C@H](C(=O)NCC(=O)N[C@@H](CO)C(=O)N[C@@H](CC(N)=O)C(=O)N[C@H](C(=O)N1CCC[C@H]1C(N)=O)[C@@H](C)O)C(C)C)[C@@H](C)O [NN96, N-α-[(S)-4-carboxy-4-(19-carboxynonadecanoylamino)butyryl]-[Arg1,Glu14,His17,Pro37]-pramlintide, reference compound] ({C20 diacid-γGlu}-RCNTATCATQRLAEFLHHSSNNFGPILPPTNVGSNTP-NH2; disulfide 2-7)			SS (SS indicates solubility ≥ 1mg/ml)	SS (SS indicates solubility ≥ 1mg/ml)	SS (SS indicates solubility ≥ 1mg/ml)	SS (SS indicates solubility ≥ 1mg/ml)	SS (SS indicates solubility ≥ 1mg/ml)	SS (SS indicates solubility ≥ 1mg/ml)	SS (SS indicates solubility ≥ 1mg/ml)	0.089
